Experimental findings from patent US20030087243A1, “Diagnosis, prognosis and treatment of cancer related to the Barx2 gene” (priority 1999, published 2003) are described below.

Holding throughout (assay type): cell-based, human
The test system of one assay is Barx2. The assay is described as follows: Azacytidine demethylation, Barx2 re-expression in OAW42. Conditions: OAW42, 96 hours, 0.5 μM azacytidine. The procedure:
OAW42 was exposed to 5-azacytidine for 96 hours at different concentrations. […] Feint expression is seen for barx2 in OAW42 control, but strong induction of barx2 expression is seen at 0.5 μM azacytidine relative to actin signal.
OAW42 was exposed to 5-azacytidine for 96 hours at different concentrations.

For another assay, the system named is PEO1. The assay is described as follows: 12 day growth inhibition assay with cisplatin, PEO1 with and without Barx2 transfection. Conditions: PEO1, across the cisplatin concentration range. From the text: (§1) Transfection of BARX2 into OVCAR3, OAW42, PEO1 and PEO1-CDDP suppresses cell growth. In OAW42, this is accompanied by suppression of matrigel invasion, cell migration and adhesion and partial G1/S-phase block. […] This is consistent with recent thinking for molecular mechanisms of cytotoxicity in clinical cancer, and clonogenic assays are shown in FIG. 35.

Assay [1] has as its system PEO1 cisplatin sensitive and resistant cell lines. As to the kind of experiment: Annexin-V-FACS apoptosis after cisplatin. On the procedure:
Flow-cytometric detection of phosphatidylserine expression in cell lines and MHCs was performed according to the manufacturer's method using the Fluorescein labelled Annexin-V Apoptosis Detection Kit (R&D systems) (Vermes et al, 1995). The measure of early apoptosis derives from the assessment of the proportion of Annexin-V positives Propidium Iodide negative cells.
as §1

In assay [2] the test system is PEO1CDDP. The assay is described as follows: Growth (cell counts) of PEO1CDDP transfectant clones exposed to cisplatinum. The following applies: day 13. On the procedure: We tested whether the introduction of Barx2 into PEO1CDDP altered its sensitivity to cisplatinum. 25000 cells were plated. Two days later, varying concentrations of cisplatinum were applied for 3 days, and then removed. Refeeding of the cells was performed every three days until day 13 with cell counts performed every three days.
CH1.1 is a control PEO1CDDP derivative clone that has been transfected with the pBabe Hygro empty vector (the same vector into which BarX2 was cloned) and behave as the parent line. CB3.6 is a BarX2 transfected growth suppressed clone. Both are exposed to increasing concentrations of cisplatinum.
The result of this experiment is seen particularly at the 1 μM cisplatinum concentration. Compared with no cisplatinum, the control cell line grows to 85% control at 1 μM cisplatinum at day 13. At the same timepoint and concentration of platinum, the BarX2 transfected platinum resistant cell line grows to only 69% of control. This increase in platinum sensitivity (or reduction in resistance) upon BarX2 transfection is consistent with the observed aberrant expression of the 5′ BarX2 transcript noted by RT-PCR in the PEO series of cell lines. Whether BarX2 induces sensitivity, reduces resistance, or both is not understood and the underlying mechanism is currently being explored.

For assay [3], the system named is PEO1CDDP transfectant cell lines. As to the kind of experiment: Clonogenic assay of PEO1CDDP transfectants after cisplatinum exposure. The following applies: CB1.3, CB3.6 vs CH1.1, CH2.2; 3 day exposure, 1.0 μM cisplatinum; p<0.0001. On the procedure:
FIG. 35. The PEO1CCDP pBABE Hygromycin control transfectant cell lines CH1.1 and CH2.2, and the PEO1CDDP pBABE BARX2 transfectant cell lines CB1.3 and CB3.6, were assayed for survival at day 12 following 3 day exposure to 0 μM, 1.0 μM and 2.0 μM cisplatinum in a clonogenic assay.

For another assay, the system named is PEO1 CDDP cell line. The assay is described as follows: Cisplatin resistance of PEO1 CDDP cell line relative to PEO1. Conditions: developed by exposing PEO1 to cisplatinum in vitro. The text has this:
(§2) In FIG. 4, the 5′ end (F1R1) and the 3′ end (F3R3) of the BarX2 transcript are amplified by RT-PCR using the primers given. PEO1, PEO4, PEO6 and PEOCDDP are four cell lines derived from a patient with ovarian cancer. […] Another cell line PEO4 was derived from the same patient when they relapsed again after treatment with high dose cisplatin chemotherapy in vivo. This cell line is approx four-fold resistant relative to PEO1.

For another assay, the system named is PEO4. As to the kind of experiment: Cisplatin resistance of PEO4 cell line relative to PEO1. Conditions: PEO4, derived after relapse following high dose cisplatin in vivo.
Excerpt: as §2

Assay [4] relates to PEO1CDDP. The assay is described as follows: 12 day growth inhibition assay with cisplatin, PEO1CDDP with and without Barx2 transfection. Conditions: across the cisplatin concentration range.

Regarding `Nc1ncn([C@@H]2O[C@H](CO)[C@@H](O)[C@H]2O)c(=O)n1` [5-azacytidine], in the assay with Barx2, the “induction of Barx2 expression” value is on record as “Clear induction”.

`N.N.[Cl][Pt][Cl]` [cisplatin]: the “change of sensitivity to cisplatin as a result of Barx2 transfection” value in the assay with PEO1 was “not significantly altered”. For the same compound, the “apoptosis, sensitive versus resistant cell lines” value in assay [1] (1.5 or 5 micromolar cisplatin, between 1 hr and 40 hr) is “no significant differences”. The “apoptosis in response to cisplatin in BARX2 transfected cells” value in assay [1] (BARX2 transfected PEO1 and PEO1-CDDP) is given as “no increase in apoptosis”. For the same compound, the “growth compared with no cisplatinum” value is 69% with PEO1CDDP [2] (BarX2 transfected clone CB3.6, 1 μM cisplatinum for 3 days) and 85% with PEO1CDDP [2] (control clone CH1.1 (pBabe Hygro empty vector), 1 μM cisplatinum for 3 days). Besides, the “increase in platinum sensitivity following BARX2 transfection (survival at day 12)” value in assay [3] is “statistically significant”. Further, in the assay on PEO1 CDDP cell line, the “resistance to cisplatin relative to PEO1” value stood at 18 fold. Besides, in the assay with PEO4, the “resistance relative to PEO1” value was “approx four”. Besides, the “increase of platinum sensitivity by Barx2 transfection” value with PEO1CDDP [4] was “six”.
